Assay results taken from paper PMC8691750, “Euphorbia Factor L2 ameliorates the Progression of K/BxN Serum-Induced Arthritis by Blocking TLR7 Mediated IRAK4/IKKβ/IRF5 and NF-kB Signaling Pathways” (Frontiers in Pharmacology, 2021).
Several values for one entry are separate records, joined by “and”; a condition that tells them apart may be missing. Equal values may be shown once.

Tested on: TLR signalling pathway genes
Experiment: Toll-like Receptor Pathway PCR array of ankles
Format: in vivo, C57BL/6 mice
Conditions: ankles
Protocol: Total RNA was isolated from the right ankles using the TRIzol Reagent (Invitrogen) and purified with RNeasy Mini Kit and RNase-Free DNase Set (Qiagen). RNA quality was determined using a spectrophotometer and was reversely transcribed using Wcgene® mRNA cDNA kit. The complementary DNA was used on the Toll-like Receptor Pathway PCR Array plate (Wcgene® biotech, China).

[1] = STA mice + EFL2 i.p., individual mice EFL2-1 to EFL2-4
[2] = EFL2 40 mg/kg i.p. treated STA mice versus STA mice

In the case of `C=C1C(OC(=O)c2ccccc2)CC2C(C=C(C)C(=O)C3(OC(C)=O)CC(C)C(OC(=O)c4ccccc4)C3C1OC(C)=O)C2(C)C` (stereo not shown) [EFL2, Euphorbia factor L2], the “Map2k4 relative expression to GAPDH” value [1] is reported as 0.009032 and 0.01171 and 0.005161 and 0.006054, the “Myd88 relative expression to GAPDH” value [1] is reported as 0.0089 and 0.006533 and 0.004478 and 0.009066 and the “Nfkb2 relative expression to GAPDH” value [1] is reported as 0.008129 and 0.004372 and 0.004079 and 0.005983. For the same compound, the “Nfkbia relative expression to GAPDH” value [1] was 0.03111 and 0.02056 and 0.01675 and 0.03064, the “Nfkbib relative expression to GAPDH” value [1] was 0.005737 and 0.004539 and 0.002397 and 0.00388 and the “Nr2c2 relative expression to GAPDH” value [1] was 0.009954 and 0.006912 and 0.004742 and 0.008167. For the same compound, the “Peli1 relative expression to GAPDH” value [1] was 0.02035 and 0.01296 and 0.0006428 and 0.01623, the “Pglyrp1 relative expression to GAPDH” value [1] was 0.0004159 and 0.002383 and 0.001422 and the “Ptgs2 relative expression to GAPDH” value [1] was 0.000397 and 0.0002674 and 0.0003018 and 0.001434. For the same compound, the “Rel relative expression to GAPDH” value [1] was 0.004928 and 0.005486 and 0.005407, the “Ticam1 relative expression to GAPDH” value [1] was 0.006005 and 0.003329 and 0.002855 and 0.003921 and the “Tlr2 relative expression to GAPDH” value [1] was 0.01307 and 0.007729 and 0.007046. The “Tlr3 relative expression to GAPDH” value [1] was 0.002217 and 0.00166 and 0.01628 and 0.001979, the “Tlr4 relative expression to GAPDH” value [1] was 0.00914 and 0.009306 and 0.004225 and 0.009146 and the “Tlr5 relative expression to GAPDH” value [1] was 0.001998 and 0.001071 and 0.0002832 and 0.0007049. The “Tlr7 relative expression to GAPDH” value [1] was 0.0007393 and 0.00028 and 0.0006762, the “Tlr8 relative expression to GAPDH” value [1] was 0.001034 and 0.001839 and the “Tlr9 relative expression to GAPDH” value [1] was 9.931e-5 and 0.0006069. For the same compound, the “Tnf relative expression to GAPDH” value [1] was 0.0005528 and 0.0004186 and 0.0004529, the “Tnfaip3 relative expression to GAPDH” value [1] was 0.001676 and 0.002239 and 0.001643 and 0.003028 and the “Tollip relative expression to GAPDH” value [1] was 0.01333 and 0.008592 and 0.009094. The “Traf6 relative expression to GAPDH” value [1] was 0.01108 and 0.005865 and 0.005186 and 0.004909, the “Ube2v1 relative expression to GAPDH” value [1] was 0.02505 and 0.04987 and 0.0319 and 0.05212 and the “Becn1 fold change S40/SIA” value [2] was 0.2727. The “Btk fold change S40/SIA” value [2] was 0.3155, the “Casp8 fold change S40/SIA” value [2] was 0.2393 and the “Ccl2 fold change S40/SIA” value [2] was 0.0326. The “Ccl11 fold change S40/SIA” value [2] was 1.864, the “Cd86 fold change S40/SIA” value [2] was 0.1925 and the “Chuk fold change S40/SIA” value [2] was 0.3313. The “Clec4e fold change S40/SIA” value [2] was 0.0859, the “Cxcl10 fold change S40/SIA” value [2] was 0.002337 and the “Elk1 fold change S40/SIA” value [2] was 0.3565. The “Fadd fold change S40/SIA” value [2] was 0.1995, the “Hras1 fold change S40/SIA” value [2] was 0.4915 and the “Hspd1 fold change S40/SIA” value [2] was 0.2339. For the same compound, the “IRF5 fold change S40/SIA” value [2] was 0.3677, the “Il1b fold change S40/SIA” value [2] was 0.0229 and the “Il6 fold change S40/SIA” value [2] was 0.03478. For the same compound, the “Il10 fold change S40/SIA” value [2] was 0.2443, the “Ilr1 fold change S40/SIA” value [2] was 0.09556 and the “Irak2 fold change S40/SIA” value [2] was 0.4814. For the same compound, the “Irak3 fold change S40/SIA” value [2] was 0.4891, the “Irf1 fold change S40/SIA” value [2] was 0.3319 and the “Irf3 fold change S40/SIA” value [2] was 0.3241. For the same compound, the “Jun fold change S40/SIA” value [2] was 0.3678, the “Ly96 fold change S40/SIA” value [2] was 0.3878 and the “Map2k4 fold change S40/SIA” value [2] was 0.8651. For the same compound, the “Myd88 fold change S40/SIA” value [2] was 0.1447, the “Nfkb2 fold change S40/SIA” value [2] was 0.2395 and the “Nfkbia fold change S40/SIA” value [2] was 0.2445. For the same compound, the “Nfkbib fold change S40/SIA” value [2] was 0.4073, the “Nr2c2 fold change S40/SIA” value [2] was 0.5521 and the “Peli1 fold change S40/SIA” value [2] was 0.462. The “Pglyrp1 fold change S40/SIA” value [2] was 0.2161, the “Ptgs2 fold change S40/SIA” value [2] was 0.03786 and the “Rel fold change S40/SIA” value [2] was 0.2762. The “Ticam1 fold change S40/SIA” value [2] was 0.59, the “Tlr2 fold change S40/SIA” value [2] was 0.1682 and the “Tlr3 fold change S40/SIA” value [2] was 0.7859. For the same compound, the “Tlr4 fold change S40/SIA” value [2] was 0.5705, the “Tlr5 fold change S40/SIA” value [2] was 0.188 and the “Tlr7 fold change S40/SIA” value [2] was 0.09461. The “Tlr8 fold change S40/SIA” value [2] was 0.1573, the “Tlr9 fold change S40/SIA” value [2] was 0.05745 and the “Tnf fold change S40/SIA” value [2] was 0.271. The “Tnfaip3 fold change S40/SIA” value [2] was 0.2367, the “Tollip fold change S40/SIA” value [2] was 0.6335 and the “Traf6 fold change S40/SIA” value [2] was 0.511. For the same compound, the “Ube2v1 fold change S40/SIA” value [2] was 0.4284.
